How the values were obtained:
[1] = test system: mouse embryonic cells (MEC); assay: EPR-based analysis of integration and reduction of nitroxide Gramicidin S-peptidyl conjugates in MECs; assay type: cell-based; conditions: 10 μM, whole cells, cytosol fractions
Description: Electron paramagnetic resonance (“EPR”) spectroscopy was used to monitor the cellular delivery of compounds 5a and 5b shown in FIG. 3 in mouse embryonic cells (“MEC”).
The following conditions were used during the EPR-based analysis of the integration and reduction of nitroxide Gramicidin S-peptidyl conjugates in MECs. The MECs at a concentration of 10 million MECs per mL were incubated with 10 μM of 4-AT and compound 5a, respectively. Recovered nitroxide radicals in whole cells, mitochondria, and cytosol fractions were resuspended in phosphate buffer saline (“PBS”) in the presence and absence, respectively, of 2 μM K3Fe(CN)6.

caspases 3 and 7 = assay: Caspases 3 and 7 activity assay in gut mucosa after hemorrhagic shock; assay type: in vivo, rat; conditions: intraluminal XJB-5-131 solution vs vehicle
Description: Caspases 3 and 7 activity assay. Caspases 3 and 7 activity was measured using a commercially available assay kit, Caspase Glo™ 3/7 assay kit (Promega, Madison, Wis.). Briefly, 50 μl of rat gut mucosa homogenate (20 jug protein) was mixed with 50 μl of Caspase-Glo™ reagent and incubated at room temperature for 1 hour. At the end of incubation period, the luminescence of each sample was measured using a plate reading chemiluminometer (ML1000, Dynatech Laboratories, Horsham, Pa.). Activity of caspases 3 and 7 was expressed as luminescence intensity (arbitrary units per mg protein). Protein concentrations were determined using the BioRad assay (Bio-Rad Laboratories, Inc., Hercules, Calif.).
After two hours of HS, samples of ileal mucosa from the gut sacs filled with the vehicle and XJB-5-131 were obtained and compared with ileal mucosa of normal MECs. All samples were assayed with caspase 3 or caspase 7 activity as well as the peroxidation of phosphatidylcholine (“PC”), phosphatidylethanolamine (“PE”), phosphatidylserine (“PS”), and cardiolipin (“CL”), summarized in FIG. 7.

[2] = test system: rats subjected to volume-controlled hemorrhagic shock; assay: Survival of rats subjected to volume-controlled hemorrhagic shock; assay type: in vivo, rat; conditions: 2 μmol/kg intravenous; for survival vs vehicle: last 20 min of hemorrhage
Description: Survival of rats subjected to volume-controlled hemorrhagic shock. Following surgical preparation and a 5-min stabilization period to obtain baseline readings, rats were subjected to hemorrhagic shock. Bleeding was carried out in 2 phases.
Initially, 21 ml/kg of blood was withdrawn over 20 min. Immediately thereafter, an additional 12.5 ml/kg of blood was withdrawn over 40 min. Thus, hemorrhage occurred over a total period of 60 min and the total blood loss was 33.5 ml/kg or approximately 55% of the total blood volume. Rats were randomly assigned to receive XJB-5-131 (2 μmol/kg) or its vehicle, a 33:67 (v/v) mixture of DMSO and normal saline. XJB-5-131 solution or vehicle alone was administered as a continuous infusion during the last 20 min of the hemorrhage period. The total volume of fluid infused was 2.8 ml/kg and it was administered intravenously using a syringe pump (KD100, KD Scientific, New Hope, Pa.). […] At the end of the 6 hour observation period, animals that were still alive were euthanized with an overdose of KCl.
A total of sixteen rats were tested in this study. Rats were treated with 2.8 ml/kg of vehicle or the same volume of XJB-5-131 solution during the final 20 min of the bleeding protocol. The total dose of XJB-5-131 infused was 2 μmol/kg. Following profound hemorrhagic shock consistent with the protocol described above for the prior studies, thirteen survived for at least 60 min and received the full dose of either XJB-5-131 solution or the vehicle, a 33:67 (v/v) mixture of DMSO and normal saline. […] None of the between-group differences were statistically significant.

[3] = test system: Ercc1−/cond; K14-Cre mice; assay: Photoaging after UV-B in Ercc1−/cond; K14-Cre mice; assay type: in vivo, mouse; conditions: 80 μg in a cream daily for five days
Description: As a measure of the effect of XJB-5-131 on photoaging, Ercc1^−/cond; K14-Cre mice, which are missing ERCC1 only in the skin, were shaved, treated with a depilatory then irradiated with UV-B light to induce a sunburn (500 J/m^2, the median erythemal dose). Subsequently, the mice were treated with XJB-5-131 (80 μg) emulsified in a cream daily for five days.

[4] = test system: MEF cells from Ercc1−/− mouse embryos; assay: Senescence, DNA damage and apoptosis in Ercc1−/− MEF cells under ambient oxygen; assay type: cell-based; conditions: 500 nM
Description: Graphs showing weight over time of treated, untreated and control animals are shown in FIG. 36A-B. To assess the impact of XJB-5-131 at a cellular level, a number of experiments were carried out using mouse embryonic fibroblasts (“MEF”) cells harvested from Ercc1^−/− mouse embryos.

[5] = test system: γ-H2AX in primary MEF cells from Ercc1−/− mice; assay: γ-H2AX immunostaining in Ercc1−/− MEFs under oxidative stress; assay type: cell-based, mouse; conditions: 1 μM, 48 hours
Description: Next, the abilities of these two agents, as well as XJB-5-131 and JP4-039, each at a concentration of 1 μM, were tested for their ability to prevent oxidation-induced DNA double-strand breaks in cell cultures prepared, and oxidatively stressed, as in the preceding paragraph. Treated as well as untreated cells were, after 48 hours of treatment, immunostained for γ-H2AX, a marker of DNA double-strand breaks as well as cellular senescence.

CC(C)C[C@@H](/C=C/[C@H](Cc1ccccc1)C(=O)N1CCC[C@H]1C(=O)N[C@H](C(=O)N[C@@H](CCCNC(=O)OCc1ccccc1)C(=O)NC1CC(C)(C)N([O])C(C)(C)C1)C(C)C)NC(=O)OC(C)(C)C [XJB-5-131]
EPR signals of nitroxide radicals; integration into cells and mitochondria [1]: concentrated in the mitochondria
caspase 3 and 7 activity after hemorrhagic shock (caspases 3 and 7): significantly decreased
rats surviving longer than 3 hours after completion of the hemorrhage protocol [2]: Three of the six
rats surviving the whole 6 hour post-bleeding observation period [2]: one
survival vs vehicle [2]: survived significantly longer
survival vs vehicle ([2]; listed as XJR-5-131): significantly prolonged the survival
appearance of skin after UV-B [3]: much more smooth and healthy
SA-β galactosidase staining [4]: notably less
apoptosis [4]: did not reduce the amount of apoptosis
γH2AX foci [4]: reduce the number of γH2AX foci
γ-H2AX (oxidation-induced DNA double-strand breaks) [5]: less effective

From patent US9890192B2, “Targeted nitroxide agents” (University of Pittsburgh—of the Commonwealth System of …, priority 2008, dated 2018)
